According to ChEMBL document CHEMBL1201862, “PubChem BioAssay data set” (2004):
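How tested: cells in 96-well plates exposed to compound for 48 hours at five concentrations. The concentration for 50% growth inhibition is given as GI50.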 Active and inactive are the calls of the source. Rule as the data show it: active = GI50 up to about 1.1 µM and inactive = higher.

Assays:
Assay in all cases: NCI anticancer screen, dose series, 48 h
EKVX = system: EKVX
ACHN = system: ACHN
SNB-75 = system: SNB-75
XF498 = system: XF498
SK-OV-3 = system: SK-OV-3
DMS-114 = system: DMS-114
SW-620 = system: SW-620
HOP-18 = system: HOP-18
HCT-116 = system: HCT-116
HOP-62 = system: HOP-62
SF-295 = system: SF-295
COLO 205 = system: COLO 205
OVCAR-8 = system: OVCAR-8
LXFL 529 = system: LXFL 529
HT-29 = system: HT-29
OVCAR-3 = system: OVCAR-3
M14 = system: M14
HOP-92 = system: HOP-92
RPMI-8226 = system: RPMI-8226
HCC 2998 = system: HCC 2998
K562 = system: K562
LOX IMVI = system: LOX IMVI
CCRF-CEM = system: CCRF-CEM
TK-10 = system: TK-10
HL-60 = system: HL-60
U-251 = system: U-251
DLD-1 = system: DLD-1
MOLT-4 = system: MOLT-4
NCI-H23 = system: NCI-H23
CAKI-1 = system: CAKI-1
SK-MEL-5 = system: SK-MEL-5
KM-20L2 = system: KM-20L2
786-0 = system: 786-0
HCT-15 = system: HCT-15
DMS-273 = system: DMS-273
M19-MEL = system: M19-MEL
IGROV-1 = system: IGROV-1
OVCAR-4 = system: OVCAR-4
SNB-78 = system: SNB-78
SF-539 = system: SF-539
NCI-H460 = system: NCI-H460
UACC-257 = system: UACC-257
SN12C = system: SN12C
A549 = system: A549
RXF 393 = system: RXF 393
RXF 631 = system: RXF 631
SK-MEL-28 = system: SK-MEL-28
A498 = system: A498
UACC-62 = system: UACC-62
SNB-19 = system: SNB-19
NCI-H522 = system: NCI-H522
SK-MEL-2 = system: SK-MEL-2
SF-268 = system: SF-268
OVCAR-5 = system: OVCAR-5
KM12 = system: KM12
UO-31 = system: UO-31
Malme-3M = system: Malme-3M
NCI-H226 = system: NCI-H226
SR = system: SR

CCOC(=O)NC(=O)c1cn(CCCCCCCCCCC(=O)N2CCN(CCn3cc(C(=O)NC(=O)OCC)c(=O)[nH]c3=O)CC2)c(=O)[nH]c1=O
GI50 (EKVX): > 100 µM (inactive) | GI50 (ACHN): > 100 µM (inactive) | GI50 (SNB-75): > 100 µM (inactive) | GI50 (XF498): > 100 µM (inactive) | GI50 (SK-OV-3): > 100 µM (inactive) | GI50 (DMS-114): > 100 µM (inactive) | GI50 (SW-620): > 100 µM (inactive) | GI50 (HOP-18): > 100 µM (inactive) | GI50 (HCT-116): > 100 µM (inactive) | GI50 (HOP-62): > 100 µM (inactive) | GI50 (SF-295): > 100 µM (inactive) | GI50 (COLO 205): > 100 µM (inactive) | GI50 (OVCAR-8): > 100 µM (inactive) | GI50 (LXFL 529): > 100 µM (inactive) | GI50 (HT-29): > 100 µM (inactive) | GI50 (OVCAR-3): > 100 µM (inactive) | GI50 (M14): > 100 µM (inactive) | GI50 (HOP-92): > 100 µM (inactive) | GI50 (RPMI-8226): > 100 µM (inactive) | GI50 (HCC 2998): > 100 µM (inactive) | GI50 (K562): > 100 µM (inactive) | GI50 (LOX IMVI): > 100 µM (inactive) | GI50 (CCRF-CEM): > 100 µM (inactive) | GI50 (TK-10): > 100 µM (inactive) | GI50 (HL-60): > 100 µM (inactive) | GI50 (U-251): > 100 µM (inactive) | GI50 (DLD-1): > 100 µM (inactive) | GI50 (MOLT-4): > 100 µM (inactive) | GI50 (NCI-H23): > 100 µM (inactive) | GI50 (CAKI-1): > 100 µM (inactive) | GI50 (SK-MEL-5): > 100 µM (inactive) | GI50 (KM-20L2): > 100 µM (inactive) | GI50 (786-0): > 100 µM (inactive) | GI50 (HCT-15): > 100 µM | GI50 (DMS-273): > 100 µM (inactive) | GI50 (M19-MEL): > 100 µM (inactive) | GI50 (IGROV-1): > 100 µM (inactive) | GI50 (OVCAR-4): > 100 µM (inactive) | GI50 (SNB-78): > 100 µM (inactive) | GI50 (SF-539): > 100 µM (inactive) | GI50 (NCI-H460): > 100 µM (inactive) | GI50 (UACC-257): > 100 µM (inactive) | GI50 (SN12C): > 100 µM (inactive) | GI50 (A549): > 100 µM (inactive) | GI50 (RXF 393): > 100 µM (inactive) | GI50 (RXF 631): > 100 µM (inactive) | GI50 (SK-MEL-28): > 100 µM (inactive) | GI50 (A498): > 100 µM (inactive) | GI50 (UACC-62): > 100 µM (inactive) | GI50 (SNB-19): > 100 µM (inactive)

CCOC(=O)CNC(=O)OCc1ccccc1
GI50 (ACHN): > 100 µM (inactive) | GI50 (NCI-H522): > 100 µM (inactive) | GI50 (SK-MEL-2): > 100 µM (inactive) | GI50 (SNB-75): > 100 µM (inactive) | GI50 (XF498): > 100 µM (inactive) | GI50 (SK-OV-3): > 100 µM (inactive) | GI50 (DMS-114): > 100 µM (inactive) | GI50 (SW-620): > 100 µM (inactive) | GI50 (HCT-116): > 100 µM (inactive) | GI50 (HOP-62): > 100 µM (inactive) | GI50 (SF-295): > 100 µM (inactive) | GI50 (COLO 205): > 100 µM (inactive) | GI50 (OVCAR-8): > 100 µM (inactive) | GI50 (LXFL 529): > 100 µM (inactive) | GI50 (HT-29): > 100 µM (inactive) | GI50 (OVCAR-3): > 100 µM (inactive) | GI50 (M14): > 100 µM (inactive) | GI50 (HOP-92): > 100 µM (inactive) | GI50 (HCC 2998): > 100 µM (inactive) | GI50 (K562): > 100 µM (inactive) | GI50 (SF-268): > 100 µM (inactive) | GI50 (LOX IMVI): > 100 µM (inactive) | GI50 (CCRF-CEM): > 100 µM (inactive) | GI50 (TK-10): > 100 µM (inactive) | GI50 (HL-60): > 100 µM (inactive) | GI50 (U-251): > 100 µM (inactive) | GI50 (DLD-1): > 100 µM (inactive) | GI50 (MOLT-4): > 100 µM (inactive) | GI50 (NCI-H23): > 100 µM (inactive) | GI50 (CAKI-1): > 100 µM (inactive) | GI50 (786-0): > 100 µM (inactive) | GI50 (HCT-15): > 100 µM | GI50 (DMS-273): > 100 µM (inactive) | GI50 (M19-MEL): > 100 µM (inactive) | GI50 (IGROV-1): > 100 µM (inactive) | GI50 (OVCAR-5): > 100 µM (inactive) | GI50 (KM12): > 100 µM (inactive) | GI50 (SNB-78): > 100 µM (inactive) | GI50 (SF-539): > 100 µM (inactive) | GI50 (NCI-H460): > 100 µM (inactive) | GI50 (UACC-257): > 100 µM (inactive) | GI50 (UO-31): > 100 µM (inactive) | GI50 (SN12C): > 100 µM (inactive) | GI50 (Malme-3M): > 100 µM (inactive) | GI50 (A549): > 100 µM (inactive) | GI50 (RXF 631): > 100 µM (inactive) | GI50 (SK-MEL-28): > 100 µM (inactive) | GI50 (A498): > 100 µM (inactive) | GI50 (UACC-62): > 100 µM (inactive) | GI50 (SNB-19): > 100 µM (inactive)

O=C1C2[C@@H](C(=O)N1c1ccc(Br)cc1)C13C(=CC2([N+](=O)[O-])[C@@H]2C(=O)N(c4ccc(Br)cc4)C(=O)[C@@H]21)c1ccccc1N3c1ccccc1 (stereo not given in full)
GI50 (EKVX): > 100 µM (inactive) | GI50 (ACHN): > 100 µM (inactive) | GI50 (NCI-H522): > 100 µM (inactive) | GI50 (SK-MEL-2): > 100 µM (inactive) | GI50 (SNB-75): > 100 µM (inactive) | GI50 (XF498): 39.3 µM (inactive) | GI50 (NCI-H226): > 100 µM (inactive) | GI50 (DMS-114): > 100 µM (inactive) | GI50 (SW-620): > 100 µM (inactive) | GI50 (HOP-18): > 100 µM (inactive) | GI50 (SF-295): > 100 µM (inactive) | GI50 (COLO 205): 25.8 µM (inactive) | GI50 (OVCAR-8): > 100 µM (inactive) | GI50 (OVCAR-3): > 100 µM (inactive) | GI50 (M14): > 100 µM (inactive) | GI50 (HOP-92): > 100 µM (inactive) | GI50 (RPMI-8226): > 100 µM (inactive) | GI50 (HCC 2998): > 100 µM (inactive) | GI50 (K562): > 100 µM (inactive) | GI50 (SF-268): 11.6 µM (inactive) | GI50 (LOX IMVI): > 100 µM (inactive) | GI50 (CCRF-CEM): 46.7 µM (inactive) | GI50 (TK-10): > 100 µM (inactive) | GI50 (HL-60): > 100 µM (inactive) | GI50 (U-251): > 100 µM (inactive) | GI50 (DLD-1): > 100 µM (inactive) | GI50 (MOLT-4): > 100 µM (inactive) | GI50 (NCI-H23): > 100 µM (inactive) | GI50 (SR): 83 µM (inactive) | GI50 (786-0): 13.7 µM (inactive) | GI50 (HCT-15): > 100 µM | GI50 (M19-MEL): > 100 µM (inactive) | GI50 (OVCAR-5): > 100 µM (inactive) | GI50 (KM12): > 100 µM (inactive) | GI50 (SNB-78): > 100 µM (inactive) | GI50 (SF-539): > 100 µM (inactive) | GI50 (UACC-257): > 100 µM (inactive) | GI50 (UO-31): 18.9 µM (inactive) | GI50 (SN12C): > 100 µM (inactive) | GI50 (Malme-3M): > 100 µM (inactive) | GI50 (A549): > 100 µM (inactive) | GI50 (RXF 393): > 100 µM (inactive) | GI50 (RXF 631): > 100 µM (inactive) | GI50 (SK-MEL-28): > 100 µM (inactive) | GI50 (SNB-19): > 100 µM (inactive)
